Measured values from the supplement of paper PMC11061612.

How the values were obtained:
Assay in all cases: combination Emax (second highest fraction inhibited in the dose matrix, 72 h); higher = more inhibition; extreme values may be limits of the assay
A2058 (Melanoma) = system: A2058 (Melanoma)
Method in brief: (§1)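 Bliss excess equals the observed combination effect minus the expected value EA + EB − EA·EB, where EA and EB are the effects of each agent alone. Combination Emax is the second-highest inhibition within the matrix. Inhibition was scaled from CellTiter-Glo 2.0 luminescence, with 0 set by vehicle wells and 1 by blank wells, after 72 hours of two-drug dosing of cells plated in 1536-well plates.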

[1] = system: REH (B-Lymphoblastic Leukemia)
Method in brief: as §1

[2] = system: NCI-H23 (Lung Adenocarcinoma)
Method in brief: as §1

[3] = system: RERF-LC-Sq1 (Squamous Cell Lung Carcinoma)
Method in brief: as §1

[4] = system: FADU (Head and Neck Carcinoma)
Method in brief: as §1

[5] = system: HCT-15 (Colorectal Carcinoma)
Method in brief: as §1

[6] = system: RERF-GC-1B (Gastric Carcinoma)
Method in brief: as §1

[7] = system: SU-DHL-10 (B-Cell Non-Hodgkin's Lymphoma)
Method in brief: as §1

WM793B (Melanoma) = system: WM793B (Melanoma)
Method in brief: as §1

[8] = system: SHP-77 (Small Cell Lung Carcinoma)
Method in brief: as §1

[9] = system: RKN (Other Solid Carcinomas)
Method in brief: as §1

[10] = system: HSC-39 (Gastric Carcinoma)
Method in brief: as §1

[11] = system: NCI-H2342 (Lung Adenocarcinoma)
Method in brief: as §1

[12] = system: PSN1 (Pancreatic Carcinoma)
Method in brief: as §1

[13] = system: OAW-42 (Ovarian Carcinoma)
Method in brief: as §1

WM278 (Melanoma) = system: WM278 (Melanoma)
Method in brief: as §1

[14] = system: LB996-RCC (Kidney Carcinoma)
Method in brief: as §1

[15] = system: MKN45 (Gastric Carcinoma)
Method in brief: as §1

[16] = system: COLO-680N (Esophageal Squamous Cell Carcinoma)
Method in brief: as §1

[17] = system: RCM-1 (Colorectal Carcinoma)
Method in brief: as §1

Compound	combination Emax (A2058 (Melanoma))	combination Emax [1]	combination Emax [2]	combination Emax [3]	combination Emax [4]	combination Emax [5]	combination Emax [6]	combination Emax [7]	combination Emax (WM793B (Melanoma))	combination Emax [8]	combination Emax [9]	combination Emax [10]	combination Emax [11]	combination Emax [12]	combination Emax [13]	combination Emax (WM278 (Melanoma))	combination Emax [14]	combination Emax [15]	combination Emax [16]	combination Emax [17]
COc1nnc2ccc(N3CCC(c4ccc(OCCN5CCN(C)C(=O)[C@H]5C)cc4)CC3)nn12 [AZD5153] + C[C@@H]1COCCN1C2=NC(=NC(=C2)C3(CC3)[S@](=N)(=O)C)C4=C5C=CNC5=NC=C4 [AZD6738] (first compound max 1 µM, 7x7, partner max 10 µM)	0.908	0.96	1	0.801	0.642	0.858	0.796	1	0.827	0.821	0.562	1	0.673	0.586	0.702	0.671	0.731	0.782	0.383	0.674
COc1nnc2ccc(N3CCC(c4ccc(OCCN5CCN(C)C(=O)[C@H]5C)cc4)CC3)nn12 [AZD5153] + Cc1c2c(nn1C)CSCc1cc(n(C)n1)CSc1cc(c3ccccc3c1)OCCCc1c(C(=O)O)n(C)c3c-2c(Cl)ccc13 [AZD5991] (first compound max 1 µM, 7x7, partner max 1 µM)	0.975	0.965	0.997	0.602	0.975	0.75	0.985	1	0.688	0.544	0.495	1	0.563	0.506	0.615	0.484	0.491	0.497	0.37	0.619
COc1nnc2ccc(N3CCC(c4ccc(OCCN5CCN(C)C(=O)[C@H]5C)cc4)CC3)nn12 [AZD5153] + Cn1cnc2c(F)c(Nc3ccc(Br)cc3Cl)c(C(=O)NOCCO)cc21 [Selumetinib] (first compound max 1 µM, 7x7, partner max 10 µM)	0.842	0.469	0.852	0.79	0.629	0.819	0.753	1	0.786	0.424	0.577	0.76	0.347	0.818	0.426	0.799	0.482	0.744	0.378	0.817
Cc1c2c(nn1C)CSCc1cc(n(C)n1)CSc1cc(c3ccccc3c1)OCCCc1c(C(=O)O)n(C)c3c-2c(Cl)ccc13 [AZD5991] + C1CN(CCC1(C(=O)N[C@@H](CCO)C2=CC=C(C=C2)Cl)N)C3=NC=NC4=C3C=CN4 [Capivasertib] (first compound max 1 µM, 7x7, partner max 3 µM)	0.908	0.849	0.899	0.757	1	0.209	0.989	1	0.31	0.263	0.173	1	0.298	0.241	0.37	0.266	0.433	0.467	0.139	0.307
Cc1c2c(nn1C)CSCc1cc(n(C)n1)CSc1cc(c3ccccc3c1)OCCCc1c(C(=O)O)n(C)c3c-2c(Cl)ccc13 [AZD5991] + C=CCn1c(=O)c2cnc(Nc3ccc(N4CCN(C)CC4)cc3)nc2n1-c1cccc(C(C)(C)O)n1 [AZD1775] (first compound max 1 µM, partner max 1 µM)	0.892	0.877	0.966	0.785	0.963	0.557	1	1	0.582	0.461	0.223	1	0.306	0.475	0.502	0.463	0.856	0.826	0.287	0.536
Cc1c2c(nn1C)CSCc1cc(n(C)n1)CSc1cc(c3ccccc3c1)OCCCc1c(C(=O)O)n(C)c3c-2c(Cl)ccc13 [AZD5991] + CC1(C)CCC(CN2CCN(c3ccc(C(=O)NS(=O)(=O)c4ccc(NCC5CCOCC5)c([N+](=O)[O-])c4)c(Oc4cnc5[nH]ccc5c4)c3)CC2)=C(c2ccc(Cl)cc2)C1 [Venetoclax] (first compound max 1 µM, 7x7, partner max 1 µM)	0.914	1	0.899	0.282	0.946	0.182	1	1	0.261	0.753	0.146	1	0.262	0.145	0.37	0.291	0.199	0.168	0.0971	0.171
Cc1c2c(nn1C)CSCc1cc(n(C)n1)CSc1cc(c3ccccc3c1)OCCCc1c(C(=O)O)n(C)c3c-2c(Cl)ccc13 [AZD5991] + CCN(CCO)CCCOc1ccc2c(Nc3cc(CC(=O)Nc4cccc(F)c4)[nH]n3)ncnc2c1 [AZD2811] (first compound max 1 µM, 7x7, partner max 1 µM)	0.919	0.931	0.926	0.622	0.986	0.263	0.998	1	0.374	0.289	0.185	1	0.427	0.319	0.288	0.396	0.405	0.408	0.211	0.347
Cc1c2c(nn1C)CSCc1cc(n(C)n1)CSc1cc(c3ccccc3c1)OCCCc1c(C(=O)O)n(C)c3c-2c(Cl)ccc13 [AZD5991] + CN(C)CCCOc1ccc(-c2ccc3ncc4c(c3c2)n(C2CCOCC2)c(=O)n4C)cn1 [AZD0156] (first compound max 1 µM, 7x7, partner max 1 µM)	0.465	0.694	0.913	0.364	0.972	0.197	0.978	1	0.305	0.284	0.173	1	0.278	0.397	0.556	0.248	0.265	0.356	0.219	0.232
Cc1c2c(nn1C)CSCc1cc(n(C)n1)CSc1cc(c3ccccc3c1)OCCCc1c(C(=O)O)n(C)c3c-2c(Cl)ccc13 [AZD5991] + C[C@@H]1COCCN1C2=NC(=NC(=C2)C3(CC3)[S@](=N)(=O)C)C4=C5C=CNC5=NC=C4 [AZD6738] (first compound max 1 µM, 7x7, partner max 10 µM)	0.925	0.945	0.977	0.853	0.985	0.733	1	1	0.834	0.594	0.215	1	0.333	0.488	0.644	0.562	0.752	0.807	0.324	0.801
Cc1c2c(nn1C)CSCc1cc(n(C)n1)CSc1cc(c3ccccc3c1)OCCCc1c(C(=O)O)n(C)c3c-2c(Cl)ccc13 [AZD5991] + C[C@@H](Nc1cc(F)cc(F)c1)c1cc(C(=O)N(C)C)cc2c(=O)cc(N3CCOCC3)oc12 [AZD8186] (first compound max 1 µM, 7x7, partner max 3 µM)	0.821	0.776	0.896	0.228	0.968	0.194	0.98	1	0.419	0.289	0.289	1	0.294	0.375	0.277	0.365	0.373	0.39	0.215	0.285
Cc1c2c(nn1C)CSCc1cc(n(C)n1)CSc1cc(c3ccccc3c1)OCCCc1c(C(=O)O)n(C)c3c-2c(Cl)ccc13 [AZD5991] + Cc1cc2ncnn2cc1Nc1ncc2c(n1)n(C1CCOCC1)c(=O)n2C [AZD7648] (first compound max 1 µM, 7x7, partner max 10 µM)	0.452	0.8	0.934	0.37	0.963	0.251	0.987	1	0.32	0.263	0.219	1	0.317	0.406	0.502	0.285	0.363	0.504	0.19	0.241
Cc1c2c(nn1C)CSCc1cc(n(C)n1)CSc1cc(c3ccccc3c1)OCCCc1c(C(=O)O)n(C)c3c-2c(Cl)ccc13 [AZD5991] + Cn1cnc2c(F)c(Nc3ccc(Br)cc3Cl)c(C(=O)NOCCO)cc21 [Selumetinib] (first compound max 1 µM, 7x7, partner max 3 µM)	0.991	0.732	0.934	0.479	1	0.301	0.998	1	0.454	0.598	0.292	1	0.341	0.67	0.263	0.648	0.255	0.508	0.236	0.651
